Test results from patent US20120130144A1, “TREATMENT OF LUNG CANCER WITH A NITROBENZAMIDE COMPOUND IN COMBINATION WITH A GROWTH FACTOR INHIBITOR” (BiPar Sciences, Inc., priority 2009, published 2012).
“Also recorded” adds a separate entry of the source. Read-outs that look alike come from different tables or passages of the source.

Tests used:
NSCLC tumors = conditions: after failure of chemotherapy, cited from earlier work
HCC827 cells [1] = experiment: CellTiter 96 Aqueous Cell Proliferation Assay (MTS), Example 2; format: cell-based; conditions: in combination with BA (100 μM and 50 μM), 72 hours
VEGF = conditions: human, in vivo; cited from earlier work
Chain of VEGF (P15692 207-311 limits assumed): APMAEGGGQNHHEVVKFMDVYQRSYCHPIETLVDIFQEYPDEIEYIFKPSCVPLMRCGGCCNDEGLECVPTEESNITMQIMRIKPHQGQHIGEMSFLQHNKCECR

NSCLC = conditions: cited from earlier work
chemo-refractory NSCLC = conditions: phase II, monotherapy, 57 evaluable patients; cited from earlier work
[2] = test system: locally advanced or metastatic pancreatic cancer; conditions: cited from earlier work
[3] = test system: HCC827 non-small cell lung carcinoma cells; experiment: TUNEL apoptosis detection (FACS), Example 1A; format: cell-based; conditions: for TUNEL (+): HCC827 (NSCLC), GFT 0 nM, 72 hours
Source text: (§1) HCC827 non-small cell lung carcinoma cells were obtained from ATCC, Rockville, Md. […] Central dose rate of approximately 1.30 Gy/minute (130 rad/minute).
The cells were labeled for apoptosis detection with the “In Situ Cell Death Detection Kit, Fluorescein” (Roche Diagnostics Corporation, Roche Applied Science, Indianapolis, Ind.) and analyzed based on the modified protocol from Dr. Darzynkiewicz laboratory. Briefly, fixed cells were centrifuged and washed once in phosphate-buffered saline (PBS) containing 1% bovine serum albumin (BSA), then resuspended in 2 ml permeabilization buffer (0.1% Triton X-100 and 0.1% sodium citrate in PBS) for 25 min at room temperature and washed twice in 0.2 ml PBS/1% BSA. The cells were resuspended in 50 μl TUNEL reaction mixture (TdT enzyme and labeling solution) and incubated for 60 min at 37° C. in a humidified dark atmosphere in an incubator. The labeled cells were washed once in PBS/1% BSA, then resuspended in 0.5 ml ice-cold PBS containing 1 μg/ml 4′,6-diamidino-2-phenylindole (DAPI) for at least 30 min. All cell samples were analyzed with a BD LSR II (BD Biosciences, San Jose, Calif.) and the final percentages of the cell cycle distribution were normalized to singlets viable cell population, excluding cell debris and polyploid cells according established procedure. All flow cytometry analyses were carried out using triplicate samples containing at least 30,000 cells each (typical results of 3 or more independent experiments are shown).

[4] = test system: HCC827 non-small cell lung carcinoma cells; experiment: FACS cell cycle analysis by DNA content and BrdU incorporation, Example 1A; format: cell-based; design: key to Sub-G1 / G1: % of cells in cell cycle phase; conditions: for BrdU (−) S / G1 / G2/M / S / Sub-G1: HCC827 (NSCLC), GFT 0 nM, 72 hours
Protocol: as §1
(§2) After the addition of the compounds as described above, irradiation and incubation, cells were trypsinized and aliquots of the samples were taken for counting and PI (Propidium Iodide) exclusion assay. One part of the cells was centrifuged and resuspended in 0.5 ml ice-cold PBS containing 5 ug/ml of PI. The other part of the cells was fixed in ice-cold 70% ethanol and stored in a freezer overnight. For cell cycle analysis, cells were stained with propidium iodide (PI) by standard procedures. Cellular DNA content was determined by flow cytometry using BD LSRII FACS, and the percentages of cells in G1, S or G2/M were determined using ModFit software.
All cell samples were analyzed as described in [5,6] using a BD LSR II or BD Aria (BD Biosciences, San Jose, Calif.). All flow cytometry analyses were carried out using triplicate samples containing at least 30,000 cells each and the final percentages of the cell cycle distribution were normalized to singlets viable cell population, excluding cell debris and polyploid cells according established procedure.
50 μl of BrdU (Sigma Chemical Co., St. Louis, Mo.) stock solution (1 mM) was added to achieve final concentration of 10 μM BrdU. Then cells were incubated for 30 min at 37° C. and fixed in ice-cold 70% ethanol and stored at 4° C. overnight. Fixed cells were centrifuged and washed once in 2 ml PBS, then resuspended in 0.7 ml of denaturation solution (0.2 mg/ml pepsin in 2 N HCl) for 15 min at 37° C. in the dark, then 1.04 ml 1M Tris buffer (Trizma base, Sigma Chemical Co.) was added to terminate the hydrolysis. Cells were washed in 2 ml PBS and resuspended in 100-μ1(1:100 dilution) of anti-BrdU antibody (DakoCytomation, Carpinteria, Calif.) in TBFP permeable buffer (0.5% Tween-20, 1% bovine serum albumin and 1% fetal bovine serum in PBS), incubated for 25 min at room temperature in the dark and washed in 2 ml PBS. The primary antibody-labeled cells were resuspended in 100 μl ALEXA FLUOR® F(ab)2, fragment of goat anti-mouse IgG (H+L) (1:200 dilution, 2 mg/mL, Molecular Probes, Eugene, Oreg.) in TBFP buffer and incubated for 25 min at room temperature in the dark and washed in 2 ml PBS, then resuspended in 0.5 ml ice-cold PBS containing 1 μg/ml 4′,6-diamidino-2-phenylindole (DAPI) for at least 30 min [3, 6].

[5] = test system: HCC827 non-small cell lung carcinoma cells; experiment: Number of vital (proliferating) cells relative to control, Example 1A; format: cell-based; conditions: for Live Cell: HCC827 (NSCLC), GFT 0 nM, 72 hours, percentage relative to control
Protocol: as §1
Following treatment, the number of vital cells was measured. Percentage of the vital (proliferating) cells under different treatments was calculated relative to the control (untreated) cells.
as §2

HCC827 cells [6] = experiment: FACS-based cell cycle analysis (PI/BrdU), Example 1; conditions: GFT 0 nM, 72 hours; for G1 / G2/M / S: percentage of cells
Protocol: After the addition of drugs, irradiation and incubation, cells are taken for counting and PI (Propidium Iodide) exclusion assay. One part of the cells is centrifuged and resuspended in 0.5 ml ice-cold PBS containing 5 μg/ml of PI. The other part of the cells is fixed in ice-cold 70% ethanol and stored in a freezer overnight. For cell cycle analysis, cells are stained with propidium iodide (PI) as described hereinabove. Cellular DNA content is determined by flow cytometry using BD LSRII FACS, and the percentages of cells in G1, S or G2/M are determined using ModFit software.
50 μl of BrdU (Sigma Chemical Co., St. Louis, Mo.) stock solution (1 mM) is added to achieve final concentration of 10 μM BrdU. Then cells are incubated for 30 min at 37° C. and fixed in ice-cold 70% ethanol and stored at 4° C. overnight. Fixed cells are centrifuged and washed once in 2 ml PBS, then resuspended in 0.7 ml of denaturation solution (0.2 mg/ml pepsin in 2 N HCl) for 15 min at 37° C. in the dark, then 1.04 ml 1M Tris buffer (Trizma base, Sigma Chemical Co.) is added to terminate the hydrolysis. Cells are washed in 2 ml PBS and resuspended in 100-μl (1:100 dilution) of anti-BrdU antibody (DakoCytomation, Carpinteria, Calif.) in TBFP permeable buffer (0.5% Tween-20, 1% bovine serum albumin and 1% fetal bovine serum in PBS), incubated for 25 min at room temperature in the dark and washed in 2 ml PBS. The primary antibody-labeled cells are resuspended in 100 μl ALEXA FLUOR® F(ab′)2 fragment of goat anti-mouse IgG (H+L) (1:200 dilution, 2 mg/mL, Molecular Probes, Eugene, Oreg.) in TBFP buffer and incubated for 25 min at room temperature in the dark and washed in 2 ml PBS, then resuspended in 0.5 ml ice-cold PBS containing 1 μg/ml 4′,6-diamidino-2-phenylindole (DAPI) for at least 30 min. All cell samples are analyzed with a BD LSR II (BD Biosciences, San Jose, Calif.). All flow cytometry analyses are carried out using triplicate samples containing at least 30,000 cells each (typical results of independent experiments are shown).

[7] = in vivo; cited from earlier work
HCC827 cells [8] = experiment: Viable cell count / growth of HCC827 cells, Example 1; format: cell-based
Protocol: Lung adenocarcinoma HCC827 cells are cultured in Dulbecco Modified Eagle Medium with 10% fetal bovine serum. […] Cells are plated at a seeding density 10^5 per P100 or at 10^4 per P60 in growth media and incubated 12-18 h at 37° C., 5% CO2. BA and the EGFR inhibitor, IRESSA, are added as a single dose for 72 hours. DMSO is used as a control. Cells are irradiated with 3Gy and 5Gy gamma-irradiation using γ-Irradiator Gammacell 40 Exactor (MDS Nordion, Canada). Following treatment, cells are analyzed with BrdU ELISA assay (Roche Applied Science), FACS based cell cycle assay or TUNEL.
as §2, with “drugs,” for “the compounds as described above,”, “are” for “were trypsinized and aliquots of the samples were”, “is” for “was”, “μg/ml” for “ug/ml”, “are” for “were”, “as described hereinabove.” for “by standard procedures.”

HCC827 cells [9] = experiment: TUNEL apoptosis assay (FACS), Example 1; format: cell-based; conditions: GFT 0 nM, 72 hours
Protocol: Lung adenocarcinoma HCC827 cells are cultured in Dulbecco Modified Eagle Medium with 10% fetal bovine serum. […] Cells are plated at a seeding density 10^5 per P100 or at 10^4 per P60 in growth media and incubated 12-18 h at 37° C., 5% CO2. BA and the EGFR inhibitor, IRESSA, are added as a single dose for 72 hours. DMSO is used as a control. […] Following treatment, cells are analyzed with BrdU ELISA assay (Roche Applied Science), FACS based cell cycle assay or TUNEL.
To detect apoptosis, the cells are labeled with the “In Situ Cell Death Detection Kit, Fluorescein” (Roche Diagnostics Corporation, Roche Applied Science, Indianapolis, Ind.). Briefly, fixed cells are centrifuged and washed once in phosphate-buffered saline (PBS) containing 1% bovine serum albumin (BSA), then resuspended in 2 ml permeabilization buffer (0.1% Triton X-100 and 0.1% sodium citrate in PBS) for 25 min at room temperature and washed twice in 0.2 ml PBS/1% BSA. The cells are resuspended in 50 μl TUNEL reaction mixture (TdT enzyme and labeling solution) and incubated for 60 min at 37° C. in a humidified dark atmosphere in an incubator. The labeled cells are washed once in PBS/1% BSA, then resuspended in 0.5 ml ice-cold PBS containing 1 μg/ml 4′,6-diamidino-2-phenylindole (DAPI) for at least 30 min. All cell samples are analyzed with a BD LSR II (BD Biosciences, San Jose, Calif.). […]

[10] = Caucasian patients with NSCLC tumors
[11] = phase III versus placebo, NSCLC after failed prior chemotherapy
[12] = combination treatment arm (TARCEVA with gemcitabine)
[13] = Homo sapiens, HCC827, 72 h, read-out: Viable Cell
[14] = gefitinib-treated HCC827 cells, FIG. 2c

COc1cc2ncnc(Nc3ccc(F)c(Cl)c3)c2cc1OCCCN1CCOCC1 [GFT, gefitinib]
major objective responses (NSCLC tumors; [10]): approximately 10% | major objective responses (NSCLC tumors; Japanese patients with NSCLC tumors): 25-30%

COc1cc([C@@H]2c3cc4c(cc3[C@H](O)[C@H]3COC(=O)[C@@H]23)OCO4)cc(OC)c1OC [PPP, (5R,5aS,8aR,9R)-5,8,8a,9-Tetrahydro-9-hydroxy-5-(3,4,5-trimethoxyphenyl)-furo[3′,′: 6,7]naphtho[2,3-d]-1,3-dio xol-6(5aH)-one]
effect of BA on antiproliferative effects of growth factor receptors inhibitors (HCC827 cells [1]): potentiation of antiproliferative effects

bevacizumab: first anti-VEGF drug, a monoclonal antibody
patients who benefit from therapy (VEGF): 10-15%

C#Cc1cccc(Nc2ncnc3cc(OCCOC)c(OCCOC)cc23)c1 [TARCEVA, erlotinib]
patients affected by rash (NSCLC; NSCLC primary registration trial): 75% | tolerability (NSCLC; clinical trials): generally well tolerated | improvement in median survival (NSCLC; [11]): 42% | improvement in one-year survival (NSCLC; [11]): 45% | patients achieving disease stabilisation (chemo-refractory NSCLC): 51% | patients surviving for at least 12 months (chemo-refractory NSCLC): 40% | Median survival [2, 12]: 6.4 months | one-year survival [2, 12]: 25.6% | improvement in overall survival ([2]; in combination with gemcitabine, compared with gemcitabine alone): 23.5% | major objective responses (NSCLC tumors; [10]): approximately 10%

COC(=O)[C@@]1(O)C[C@H]2O[C@]1(C)n1c3ccccc3c3c4c(c5c6ccccc6n2c5c31)C(=O)NC4 [K252a, (9S-(9α,10β,12α))-2,3,9,10,11,12-hexahydro-10-hydroxy-10-(methoxycarbonyl)-9-methyl-9,12-epoxy-1H-diindolo[1,2,3-fg:3′,2′,1′-kl]pyrrolo[3,4-i][1,6]benzodiazocin-1-one]
effect of BA on antiproliferative effects of growth factor receptors inhibitors (HCC827 cells [1]): potentiation of antiproliferative effects

NC(=O)c1ccc(I)c(N=O)c1 [BNO, 4-iodo-3-nitrosobenzamide]
TUNEL (+) ([3]; BNO 25 uM): 2.9 | TUNEL (+) ([3]; BNO 50 uM): 7.7 | BrdU (−) S ([4]; BNO 25 uM): 1.30 | G1 ([4]; BNO 25 uM): 61.10 | G2/M ([4]; BNO 25 uM): 7.20 | S ([4]; BNO 25 uM): 29.30 | Sub-G1 ([4]; BNO 25 uM): 1.10 | BrdU (−) S ([4]; BNO 50 uM): 3.50 | G1 ([4]; BNO 50 uM): 38.74 | G2/M ([4]; BNO 50 uM): 11.41 | S ([4]; BNO 50 uM): 44.24 | Sub-G1 ([4]; BNO 50 uM): 2.10 | Live Cell ([5]; BNO 25 uM): 76 | Live Cell ([5]; BNO 50 uM): 40

Nc1ccn([C@@H]2O[C@H](CO)[C@@H](O)C2(F)F)c(=O)n1 [gemcitabine]
Median survival ([2]; gemcitabine plus placebo): 5.9 months | one-year survival ([2]; gemcitabine plus placebo): 19.7%

NC(=O)c1ccc(I)c([N+](=O)[O-])c1 [BA, 4-iodo-3-nitrobenzamide]
TUNEL (+) ([3]; BA 50 uM): 5.7 | TUNEL (+) ([3]; BA 100 uM): 32.8 | apoptosis ([3]; gefitinib treated HCC827 cells): induced apoptosis | Sub-G1 (HCC827 cells [6]; BA 50 uM): 2.4 | G1 (HCC827 cells [6]; BA 50 uM): 46.3 | G2/M (HCC827 cells [6]; BA 50 uM): 8.8 | S (HCC827 cells [6]; BA 50 uM): 40.6 | Sub-G1 (HCC827 cells [6]; BA 100 uM): 15.8 | G1 (HCC827 cells [6]; BA 100 uM): 43.8 | G2/M (HCC827 cells [6]; BA 100 uM): 12.5 | S (HCC827 cells [6]; BA 100 uM): 19.9 | crossing of the blood-brain barrier [7]: known to cross the blood-brain barrier | distribution into tissues [7]: distributes rapidly and widely into tissues, including the brain and cerebrospinal fluid (CSF) | effect of BA on the activity of gefitinib (IRESSA) (HCC827 cells [8]; HCC827 cell line, FIG. 1): potentiates the activity of gefitinib; also recorded: potentiates the activity of the EGFR inhibitor, IRESSA | viability at 50 µM (HCC827 cells [8]; [13]): 65% | viability at 100 µM (HCC827 cells [8]; [13]): 25% | TUNEL (+) (HCC827 cells [9]; BA 50 uM): 5.7 | TUNEL (+) (HCC827 cells [9]; BA 100 uM): 32.8 | BrdU (−) S ([4]; BA 50 uM): 1.95 | G1 ([4]; BA 50 uM): 46.26 | G2/M ([4]; BA 50 uM): 8.82 | S ([4]; BA 50 uM): 40.62 | Sub-G1 ([4]; BA 50 uM): 2.36 | BrdU (−) S ([4]; BA 100 uM): 8.05 | G1 ([4]; BA 100 uM): 43.76 | G2/M ([4]; BA 100 uM): 12.49 | S ([4]; BA 100 uM): 19.92 | Sub-G1 ([4]; BA 100 uM): 15.79 | cell cycle arrest ([4]; gefitinib treated HCC827 cells): enhanced cell cycle arrest | number of cells in G1 and S phases of cell cycle [4, 14]: reduced number of cells in G1 and S phases | number of dead cells (sub-G1) [4, 14]: induced number of dead cells (sub-G1) | Live Cell ([5]; BA 50 uM): 65 | Live Cell ([5]; BA 100 uM): 25 | effect of BA on antiproliferative effect of growth factor inhibitors ([5]; HCC827 cells, FIG. 2a-2c): potentiates antiproliferative effect of growth factor inhibitors | effect of BA on antitumor activity of gefitinib ([5]; non-small lung carcinoma cells): potentiates antitumor activity of gefitinib
